Results reported in BindingDB's records for doi:10.3109/14756366.2012.656622 (Shandong University, 2013).
Where a name gives a salt, the structure may show the parent alone.

Columns and labels:
[1] = target: 72 kDa type IV collagenase (Pig, UniProt Q95JA4); assay: MMP-2 Inhibition Assay
Description: Gelatinase A (MMP-2) and TNBS were purchased from Sigma, and the substance was synthesized as described by Vijaykumar et al. The gelatinase, substance, and inhibitor were dissolved in sodium borate (pH8.5, 50 mmol/L) and incubated for 30 min at 37 °C, and then 0.03 % TNBS was added and incubated for another 20 min, the resulting solution was detected under 450 nm wavelength to gain absorption.

Aminopeptidase N = target: T1, Aminopeptidase N (Sus scrofa, UniProt P15145); assay: APN Inhibition Assay; conditions: pH 7.5; 25 °C
T1 sequence (P15145 whole entry): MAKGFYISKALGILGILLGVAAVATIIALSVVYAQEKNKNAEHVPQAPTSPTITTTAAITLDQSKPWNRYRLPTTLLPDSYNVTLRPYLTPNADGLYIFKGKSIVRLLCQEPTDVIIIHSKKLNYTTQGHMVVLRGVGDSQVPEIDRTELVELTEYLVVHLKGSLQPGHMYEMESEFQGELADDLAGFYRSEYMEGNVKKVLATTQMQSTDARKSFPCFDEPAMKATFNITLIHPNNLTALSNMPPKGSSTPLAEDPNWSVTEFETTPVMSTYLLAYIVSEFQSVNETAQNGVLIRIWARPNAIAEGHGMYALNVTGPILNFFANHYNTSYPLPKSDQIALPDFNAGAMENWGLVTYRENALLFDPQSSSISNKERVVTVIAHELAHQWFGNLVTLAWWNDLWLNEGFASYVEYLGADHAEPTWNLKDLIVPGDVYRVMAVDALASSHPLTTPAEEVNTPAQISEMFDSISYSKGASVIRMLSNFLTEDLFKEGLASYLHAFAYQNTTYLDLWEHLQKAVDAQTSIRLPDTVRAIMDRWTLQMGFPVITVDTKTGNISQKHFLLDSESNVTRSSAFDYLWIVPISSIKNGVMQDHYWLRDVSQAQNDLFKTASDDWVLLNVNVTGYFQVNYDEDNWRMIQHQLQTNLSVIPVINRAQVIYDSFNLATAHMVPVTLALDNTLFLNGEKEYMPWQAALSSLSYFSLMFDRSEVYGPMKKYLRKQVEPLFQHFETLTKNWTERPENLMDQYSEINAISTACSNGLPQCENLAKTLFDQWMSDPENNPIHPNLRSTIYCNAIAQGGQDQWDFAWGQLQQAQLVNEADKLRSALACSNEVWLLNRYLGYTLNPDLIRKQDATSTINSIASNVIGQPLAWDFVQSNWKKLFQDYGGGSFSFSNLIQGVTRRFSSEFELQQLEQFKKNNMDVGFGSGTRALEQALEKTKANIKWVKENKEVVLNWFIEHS
Description: IC50 values against APN from Porcine Kidney were determined by using L-Leu-p-nitroanilide as a substrate. All the solutions of the inhibitors were prepared in the assay buffer( pH 7.5). All the inhibitors were preincubated with APN for 5 min at room temperature. The assay mixture, which contained the inhibitor solution (concentration dependent on the inhibitor), the enzyme solution (4 mg/mL final concentration), and the assay buffer, was adjusted to 200 μL, and then incubated at 37 ℃ for 30 min.

72 kDa type IV collagenase, sequence (Q95JA4 whole entry): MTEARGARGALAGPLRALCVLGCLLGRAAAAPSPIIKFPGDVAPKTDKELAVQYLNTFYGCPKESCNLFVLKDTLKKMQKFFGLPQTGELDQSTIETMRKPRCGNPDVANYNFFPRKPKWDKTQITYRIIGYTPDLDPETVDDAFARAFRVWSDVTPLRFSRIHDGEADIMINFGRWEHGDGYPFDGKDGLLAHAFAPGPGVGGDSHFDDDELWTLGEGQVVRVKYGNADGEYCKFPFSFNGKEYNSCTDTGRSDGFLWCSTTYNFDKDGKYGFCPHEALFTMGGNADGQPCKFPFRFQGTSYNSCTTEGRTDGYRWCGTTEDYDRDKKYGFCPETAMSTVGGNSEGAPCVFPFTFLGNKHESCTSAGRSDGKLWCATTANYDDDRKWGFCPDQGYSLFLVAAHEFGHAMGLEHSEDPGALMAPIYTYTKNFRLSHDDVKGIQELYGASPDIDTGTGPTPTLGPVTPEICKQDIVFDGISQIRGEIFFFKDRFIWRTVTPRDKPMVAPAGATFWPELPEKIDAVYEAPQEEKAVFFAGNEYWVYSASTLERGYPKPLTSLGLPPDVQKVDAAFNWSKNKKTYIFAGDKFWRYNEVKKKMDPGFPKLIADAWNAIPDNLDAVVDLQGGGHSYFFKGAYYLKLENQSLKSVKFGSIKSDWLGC

Compound | IC50 [1] | IC50 (Aminopeptidase N)
CC(C)C[C@H](NC(=O)[C@@H](O)[C@H](N)Cc1ccccc1)C(=O)O | 163 µM | 
N[C@@H](c1ccccc1)[C@@H](O)C(=O)N[C@@H](Cc1ccccc1)C(=O)NO [(2R,3S)-3-amino-2-hydroxy-N-((S)-1-(hydroxyamino)-1-oxo-3-phenylpropan-2-yl)-3-phenylpropanamide hydrochloride (7f)] | 249 µM | 44 µM
C[C@H](NC(=O)[C@H](O)[C@@H](N)c1ccccc1)C(=O)NO [(2R,3S)-3-amino-2-hydroxy-N-((S)-1-(hydroxyamino)-1-oxopropan-2-yl)-3-phenylpropanamide hydrochloride (7c)] | 292 µM | 
N[C@@H](c1ccccc1)[C@@H](O)C(=O)N[C@@H](Cc1ccc(O)cc1)C(=O)NO [(2R,3S)-3-amino-2-hydroxy-N-((S)-1-(hydroxyamino)-3-(4-hydroxyphenyl)-1-oxopropan-2-yl)-3-phenylpropanamide hydrochloride (7g)] | 299 µM | 173 µM
N[C@@H](c1ccccc1)[C@@H](O)C(=O)N[C@H](C(=O)NO)c1ccccc1 [(2R,3S)-3-amino-2-hydroxy-N-((S)-2-(hydroxyamino)-2-oxo-1-phenylethyl)-3-phenylpropanamide hydrochloride (7e)] | 213 µM | 1.26 µM
N[C@@H](c1ccccc1)[C@@H](O)C(=O)N[C@@H](CO)C(=O)NO [(2R,3S)-3-amino-2-hydroxy-N-((S)-3-hydroxy-1-(hydroxyamino)-1-oxopropan-2-yl)-3-phenylpropanamide hydrochloride (7h)] | 292 µM | 158 µM
CCC(C)[C@H](NC(=O)[C@H](O)[C@@H](N)c1ccccc1)C(=O)O (stereo partly drawn) [(2S)-2-((2R,3S)-3-amino-2-hydroxy-3-phenylpropanamido)-3-methylpentanoic acid hydrochloride (5d)] | 264 µM | 
CCC(C)[C@H](NC(=O)[C@H](O)[C@@H](N)c1ccccc1)C(=O)NO (stereo partly drawn) [(2S)-2-((2R,3S)-3-amino-2-hydroxy-3-phenylpropanamido)-N-hydroxy-3-methylpentanamide hydrochloride (7d)] | 207 µM | 82.9 µM
N[C@@H](c1ccccc1)[C@@H](O)C(=O)N[C@H](C(=O)O)c1ccccc1 [(S)-2-((2R,3S)-3-amino-2-hydroxy-3-phenylpropanamido)-2-phenylacetic acid hydrochloride (5e)] | 254 µM | 198 µM
N[C@@H](c1ccccc1)[C@@H](O)C(=O)N[C@@H](Cc1ccc(O)cc1)C(=O)O [(S)-2-((2R,3S)-3-amino-2-hydroxy-3-phenylpropanamido)-3-(4-hydroxyphenyl) propanoic acid hydrochloride (5g)] | 407 µM | 
N[C@@H](c1ccccc1)[C@@H](O)C(=O)N[C@@H](CO)C(=O)O [(S)-2-((2R,3S)-3-amino-2-hydroxy-3-phenylpropanamido)-3-hydroxypropanoic acid hydrochloride (5h)] | 562 µM | 
CC(C)[C@H](NC(=O)[C@H](O)[C@@H](N)c1ccccc1)C(=O)O [(S)-2-((2R,3S)-3-amino-2-hydroxy-3-phenylpropanamido)-3-methylbutanoic acid hydrochloride (5b)] | 287 µM | 
N[C@@H](c1ccccc1)[C@@H](O)C(=O)N[C@@H](Cc1ccccc1)C(=O)O [(S)-2-((2R,3S)-3-amino-2-hydroxy-3-phenylpropanamido)-3-phenylpropanoic acid hydrochloride (5f)] | 497 µM | 
Cc1ccccc1NC(=O)[C@H](CC(C)C)NC(=O)[C@H](O)[C@@H](N)c1ccccc1 [(S)-2-((2R,3S)-3-amino-2-hydroxy-3-phenylpropanamido)-4-methyl-N-o-tolylpentanamide hydrochloride (9b)] |  | 363 µM
CC(C)C[C@H](NC(=O)[C@H](O)[C@@H](N)c1ccccc1)C(=O)O [(S)-2-((2R,3S)-3-amino-2-hydroxy-3-phenylpropanamido)-4-methylpentanoic acid hydrochloride (5a)] | 215 µM | 352 µM
CC(C)[C@H](NC(=O)[C@H](O)[C@@H](N)c1ccccc1)C(=O)NO [(S)-2-((2R,3S)-3-amino-2-hydroxy-3-phenylpropanamido)-N-hydroxy-3-methylbutanamide hydrochloride (7b)] | 128 µM | 76.9 µM
CC(C)C[C@H](NC(=O)[C@H](O)[C@@H](N)c1ccccc1)C(=O)NO [(S)-2-((2R,3S)-3-amino-2-hydroxy-3-phenylpropanamido)-N-hydroxy-4-methylpentanamide hydrochloride (7a)] | 64.6 µM | 56.7 µM
C[C@H](NC(=O)[C@H](O)[C@@H](N)c1ccccc1)C(=O)O [(S)-2-((2R,3S)-3-amino-2-hydroxy-3-phenylpropanamido)propanoic acid hydrochloride (5c)] | 273 µM | 342 µM
CC(C)C[C@H](NC(=O)[C@H](Cc1ccccc1)NC(=O)[C@H](O)[C@@H](N)c1ccccc1)C(=O)O [(S)-2-((S)-2-((2R,3S)-3-amino-2-hydroxy-3-phenylpropanamido)-3-phenylpropanamido)-4-methylpentanoic acid hydrochloride (5n)] |  | 105 µM
CC(C)C[C@H](NC(=O)[C@H](O)[C@@H](N)c1ccccc1)C(=O)NC(C(=O)O)c1ccccc1 (stereo partly drawn) [(S)-2-((S)-2-((2R,3S)-3-amino-2-hydroxy-3-phenylpropanamido)-4-methylpentanamido)-2-phenylacetic acid hydrochloride (5k)] | 186 µM | 
CC(C)C[C@H](NC(=O)[C@H](O)[C@@H](N)c1ccccc1)C(=O)N[C@H](C(=O)O)C(C)C [(S)-2-((S)-2-((2R,3S)-3-amino-2-hydroxy-3-phenylpropanamido)-4-methylpentanamido)-3-methylbutanoic acid hydrochloride (5i)] | 690 µM | 590 µM
CC(C)C[C@H](NC(=O)[C@H](CC(C)C)NC(=O)[C@H](O)[C@@H](N)c1ccccc1)C(=O)O [(S)-2-((S)-2-((2R,3S)-3-amino-2-hydroxy-3-phenylpropanamido)-4-methylpentanamido)-4-methylpentanoic acid hydrochloride (5j)] | 424 µM | 513 µM
